According to patent US20240252450A1, “TREATMENT FOR EPILEPTIC SEIZURES” (priority 2021, published 2024):

Tested on: epileptic seizures
Assay: Clinical treatment of the inventor's child with mixed epileptic seizure types (case report)
Assay type: in vivo, human
Conditions: for effect on the child's epileptic seizures: onset, hundreds of seizures a day, substance given without cannabis extract
From the text: The inventor has a child, who, experienced an abrupt onset of hundreds of absence seizures a day that developed into mixed epileptic seizure types, including absence, focal, atonic, myoclonic-atonic, tonic, and eventually a 10-hour status epilepticus seizure. The Inventor was told their child would die in their sleep from SUDEP and no medication will be able to treat them. […] The child is […] now and has developed normally.

| SMILES | effect on the child's epileptic seizures | side effects (child with intractable seizures, Keppra without cannabis extract) |
| --- | --- | --- |
| C=C(C)[C@@H]1CCC(C)=C[C@H]1c1c(O)cc(CCCCC)cc1O [CBD, cannabidiol] | neither did CBD alone | – |
| CC[C@@H](C(N)=O)N1CCCC1=O [Keppra, Levetiracetam] | reduced the frequency of the seizures but could not fully control them | side effects of nausea and “Keppra rage” |
